The results in this text go back to ChEMBL document CHEMBL1201862, “PubChem BioAssay data set” (2004).

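In this assay, cells in 96-well plates receive the compound at five concentrations for 48 hours. Endpoints are linearly interpolated between the surrounding concentrations. GI50 is the concentration that inhibits growth by half.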 The source made the active and inactive calls. Cut-off read from the data, not from the text of the source: active = GI50 up to about 1.1 µM and inactive = higher.

Common to all, as to test: NCI anticancer screen, dose series, 48 h
Test [1] has as its system IGROV-1.
Test [2] relates to RXF 393.
The subject of test [3] is Hs-578T.
In test [4] the test system is 786-0.
The subject of test [5] is M14.
In test [6] the test system is NCI-H226.
In test [7] the test system is SF-268.
Test [8] deals with HCT-15.
The subject of test [9] is T47D.
Test [10] concerns NCI-H460.
The test system of test [11] is NCI/ADR-RES.
For test [12], the system named is SF-539.
Test [13] deals with HOP-62.
The test system of test [14] is SK-MEL-28.
Test [15] concerns OVCAR-4.
Test [16] deals with SK-OV-3.
The test system of test [17] is EKVX.
Test [18] has as its system SK-MEL-2.
The subject of test [19] is TK-10.
Test [20] has as its system HOP-92.

With `O=C1NC(c2cccc(OCc3ccccc3)c2)Nc2ccccc21` (stereo not given), the GI50 is 0.5 µM (active) in [1]; 0.11 µM (active) in test [2]; 0.241 µM (active) in test [3]; 0.286 µM (active) in test [4]; 0.181 µM (active) in [5]; 0.274 µM (active) in test [6]. In addition, the GI50 in test [7] was 0.541 µM (active); in test [8], 0.0805 µM; in [9], 19.1 µM (inactive); in test [10] it was 0.208 µM (active); in test [11], 0.117 µM (active); in test [12] it was 0.201 µM (active). Besides, the GI50 in test [13] is 0.359 µM (active); in test [14], 0.309 µM (active); in test [15] it was 13.7 µM (inactive); in test [16], 0.307 µM (active); in test [17], 0.339 µM (active); in [18], 1.67 µM (inactive). For the same compound, the GI50 in [19] was 0.603 µM (active).
Consider `COC(=O)C1CCOC(C)N1C(=O)OC(C)(C)C` (stereo not given), for which the GI50 in [1], in test [2], in [3], in [4], in [5] and in test [6] was > 100 µM (inactive) throughout. Besides, the GI50 in test [7] is > 100 µM (inactive); in test [8], more than 100 µM; in [9] it was > 100 µM (inactive); in [10] it was > 100 µM (inactive); in [11], > 100 µM (inactive); in [12], > 100 µM (inactive). In addition, the GI50 in test [13], in [14], in test [15], in [16], in [17] and in test [18] was > 100 µM (inactive) throughout. The GI50 in test [19] was > 100 µM (inactive).
As to `C[N+]1(C)CCC(C#N)(c2ccccc2)CC1`, the GI50 in test [1], in test [2], in [3], in test [4], in [5] and in test [7] was > 100 µM (inactive) in each case. Further, the GI50 in test [8] is more than 100 µM; in [9], > 100 µM (inactive); in [10] it was > 100 µM (inactive); in test [11], > 100 µM (inactive); in test [13] it was > 100 µM (inactive); in test [14], > 100 µM (inactive). In addition, the GI50 in test [15], in test [16], in test [20], in test [17] and in test [19] was > 100 µM (inactive) in each case.
For the compound `CC(=O)C1(O)CCC2(O)C3(O)CC=C4CC(O)CCC4(C)C3CC(OC(=O)c3ccc(O)cc3)C12C` (stereo not given), the GI50 in test [1] is > 100 µM (inactive); in test [3] it was > 100 µM (inactive); in test [4], > 100 µM (inactive); in test [5], > 100 µM (inactive); in [6], 80.2 µM (inactive); in test [7], > 100 µM (inactive). In addition, the GI50 in [8] is more than 100 µM; in test [9], > 100 µM (inactive); in test [10] it was > 100 µM (inactive); in test [11] it was > 100 µM (inactive); in [12], > 100 µM (inactive); in test [13], > 100 µM (inactive). In addition, the GI50 in test [14], in test [15], in test [16], in [20], in test [17] and in test [18] was > 100 µM (inactive) throughout. In test [19], the GI50 is > 100 µM (inactive).
Take `CC(=O)Nc1nc(C)c(S(=O)(=O)NC(=O)NC2NC(=O)NC2=O)s1` (stereo not given): the GI50 in test [1], in test [2], in [3], in test [4], in [5] and in [7] was > 100 µM (inactive) each time. Moreover, the GI50 in test [8] is more than 100 µM; in [9] it was > 100 µM (inactive); in test [10], > 100 µM (inactive); in test [11] it was > 100 µM (inactive); in test [12], > 100 µM (inactive); in test [13], > 100 µM (inactive). Besides, the GI50 in test [14], in test [15], in test [16], in test [20], in [17] and in test [18] was > 100 µM (inactive) each time. In addition, the GI50 in [19] was > 100 µM (inactive).
Consider `CSc1ccc(/C=C2\N=C(c3ccccc3)N(c3nc4cc(C)c(C)cc4s3)C2=O)cc1`, for which the GI50 in test [1] was 15.8 µM (inactive); in test [2], 25 µM (inactive); in test [3] it was 28.4 µM (inactive); in [4] it was 21.9 µM (inactive); in test [5], 26.4 µM (inactive); in test [7], 34.8 µM (inactive). Further, the GI50 is 40.7 µM in test [8]; 44.8 µM (inactive) in test [9]; 36.3 µM (inactive) in test [10]; 31.3 µM (inactive) in [11]; 21.3 µM (inactive) in test [12]; 23.6 µM (inactive) in test [13]. Besides, the GI50 in test [14] was 49.7 µM (inactive); in test [15], 26.5 µM (inactive); in test [16], 46.5 µM (inactive); in [20], 13.5 µM (inactive); in test [17], 24.9 µM (inactive); in test [18], 16 µM (inactive). The GI50 in test [19] was 94.4 µM (inactive).
Consider `C=CCOC(=O)C1C2OC3(C(C(=O)OC)=C2C(=O)OC)c2ccccc2CCC13` (stereo not given), for which the GI50 in [1], in test [2], in test [3], in test [4], in test [5] and in test [6] was > 10 µM (inactive) throughout. For the same compound, the GI50 is > 10 µM (inactive) in test [7]; more than 10 µM in test [8]; > 10 µM (inactive) in test [9]; > 10 µM (inactive) in [10]; > 10 µM (inactive) in test [11]; > 10 µM (inactive) in test [12]. In addition, the GI50 in [13], in test [14], in [15], in test [16], in test [17] and in [18] was > 10 µM (inactive) each time. Also, the GI50 in test [19] was > 10 µM (inactive).
For `C=C(C)[C@@H]1CC[C@]2(C)CC[C@]3(C)[C@H](CC[C@@H]4[C@@]5(C)CC[C@H](OC(=O)c6ccccc6)C(C)(C)[C@@H]5CC[C@]43C)[C@@H]12`, the GI50 in test [1], in test [3], in [4], in test [5], in [6] and in [7] was > 100 µM (inactive) in each case. Besides, the GI50 in test [8] was more than 100 µM; in test [9], > 100 µM (inactive); in test [10], > 100 µM (inactive); in [11] it was > 100 µM (inactive); in [12] it was > 100 µM (inactive); in [13] it was > 100 µM (inactive). In addition, the GI50 in test [14], in [15], in test [16], in test [20], in test [17] and in test [18] was > 100 µM (inactive) each time. Further, in [19], the GI50 was > 100 µM (inactive).
